Reference: PubChem BioAssay (NCI)
“And” between values parts separate entries of the source, which are not always exact repeats. Equal values may be shown once.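 Where inhibition never reached the appropriate level, the endpoint shown equals the highest concentration tested. Otherwise, values were interpolated linearly from a five-concentration, 48-hour dose response in 96-well plates. Abbreviation: GI50, concentration required for 50% inhibition of growth. TGI is the concentration that stops growth completely.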

Experiments:
Experiment in all cases: growth of human tumour cells (NCI), 48 h
A498 renal = system: A498 renal
EKVX NSCLC = system: EKVX NSCLC
MOLT-4 leukemia = system: MOLT-4 leukemia
NCI-H23 lung = system: NCI-H23 lung
OVCAR-5 ovarian = system: OVCAR-5 ovarian
SNB-75 CNS = system: SNB-75 CNS
M14 melanoma = system: M14 melanoma
OVCAR-4 ovarian = system: OVCAR-4 ovarian
DU-145 prostate = system: DU-145 prostate
HS 578T breast = system: HS 578T breast

| SMILES | TGI (A498 renal) | TGI (EKVX NSCLC) | TGI (MOLT-4 leukemia) | TGI (NCI-H23 lung) | TGI (OVCAR-5 ovarian) | TGI (SNB-75 CNS) | TGI (M14 melanoma) | TGI (OVCAR-4 ovarian) | GI50 (A498 renal) | GI50 (DU-145 prostate) | TGI (DU-145 prostate) | GI50 (HS 578T breast) | TGI (HS 578T breast) | GI50 (M14 melanoma) | GI50 (MOLT-4 leukemia) | GI50 (NCI-H23 lung) | GI50 (OVCAR-4 ovarian) | GI50 (OVCAR-5 ovarian) | GI50 (SNB-75 CNS) | GI50 (EKVX NSCLC) |
| --- | --- | --- | --- | --- | --- | --- | --- | --- | --- | --- | --- | --- | --- | --- | --- | --- | --- | --- | --- | --- |
| N#CCCC[Si]12OCCN(CCO1)CCO2 | > 100 µM | > 100 µM | > 100 µM | > 100 µM | > 100 µM | > 100 µM |  |  |  |  |  |  |  |  |  |  |  |  |  |  |
| CN1C(=O)C(=O)N2c3ccc(Cl)cc3C3(c4ccccc4)N=CC12O3 (centres undefined) | 22.9 µM | 27.6 µM | 7.56 µM | 15.5 µM | 20 µM | 24.3 µM | 15 µM | 8.43 µM |  |  |  |  |  |  |  |  |  |  |  |  |
| COc1cc(-c2nn(-c3cccc(NC(=O)c4ccccc4)c3)cc2-c2ccncc2)ccc1Cl | 1.35 µM |  | > 100 µM | > 100 µM | > 100 µM | > 100 µM | 12.8 µM | > 100 µM | 0.197 µM | 0.626 µM | 27.1 µM | 0.87 µM | > 40.9 µM | 0.565 µM | 0.701 µM | 1.12 µM | 1.11 µM | 12.8 µM | 0.575 µM |  |
| NC(=S)N/N=C\c1nccc2c(C(F)(F)F)cccc12 | 10.6 µM |  | 15.6 µM | > 49 µM | 27.6 µM | 16.7 µM | 0.706 µM | 24.8 µM | 0.433 µM | 0.292 µM | > 39.3 µM | 1.36 µM | > 58.8 µM | 0.224 µM | 0.355 µM | 0.446 µM | 0.162 µM | 0.445 µM | 0.284 µM |  |
| Cc1[cH-]c(=O)n(-c2ccccc2)n1.[Au+].[Au].c1ccc([PH+](c2ccccc2)c2ccccc2)cc1.c1ccc([PH+](c2ccccc2)c2ccccc2)cc1 | 38.9 µM | 79.7 µM | > 100 µM | 46.1 µM | > 100 µM | 39.3 µM | 41.5 µM | > 100 µM | 23.9 µM |  |  |  |  | 9.12 µM and 9.46 µM | 36.6 µM | 9.75 µM | 32.2 µM | > 100 µM | 14.7 µM | 23 µM |
| CCOC(=O)C1Sc2ccccc2N=C1C (centres undefined) | > 100 µM | > 100 µM | > 100 µM | > 100 µM | > 100 µM | > 100 µM |  | > 100 µM |  |  |  |  |  |  |  |  |  |  |  |  |
| [O-][Cl+3]([O-])([O-])[O-].[O]=[Ru]=[O].c1ccc(-c2ccccn2)nc1.c1ccc(-c2ccccn2)nc1 | > 100 µM | > 100 µM | > 100 µM | > 100 µM | > 100 µM | > 100 µM | > 100 µM | > 100 µM | > 100 µM |  |  |  |  | > 100 µM | > 100 µM | > 100 µM | > 100 µM | > 100 µM | 40.9 µM | > 100 µM |
| Clc1ccc2cccc3c2c1C1OC3c2ccccc21 (centres undefined) | > 100 µM | > 100 µM | > 100 µM | > 100 µM | > 100 µM | > 100 µM | > 100 µM |  |  |  |  |  |  |  |  |  |  |  |  |  |
| COc1cc2c(cc1OC)-c1cc(OC)c(OC)cc1C(CN(C)C)C2 (centres undefined) | > 10 µM |  | > 10 µM | > 10 µM | > 10 µM | > 10 µM | > 10 µM | > 10 µM | > 10 µM | > 10 µM | > 10 µM | 7.27 µM | > 10 µM | > 10 µM | > 10 µM | > 10 µM | > 10 µM | > 10 µM | 4.56 µM |  |
| Cc1cc(Nc2ccc(C)c(Cl)c2)n2nc(C(F)(F)F)nc2n1 | 53.5 µM |  | 94.3 µM | > 100 µM | > 100 µM | > 100 µM | 76.5 µM | > 100 µM | 8.61 µM | 17.6 µM | 38.9 µM | 22.6 µM | 77.4 µM | 28.5 µM | 19.9 µM | 29.4 µM | 25.8 µM | 38 µM | 27.7 µM |  |
| CC(C)(C)[Si](C)(C)OC1[C@@H](O[Si](C)(C)C(C)(C)C)[C@@H](CNC(=O)NC(=O)C(F)(F)F)O[C@H]1n1cnc2c(NC(=O)Nc3ccccc3)ncnc21 (some centres undefined) | 13 µM |  | 7.03 µM | 16.6 µM | 14.6 µM | 12.7 µM | 13.2 µM | 10.9 µM | 6.34 µM | 6.52 µM | 13.2 µM | 4.5 µM | 17.2 µM | 5.72 µM | 1.67 µM | 8.77 µM | 3.98 µM | 7.89 µM | 5.68 µM |  |
| Cc1ccc(NC2=C3CCCCC3OC2=O)cc1 (centres undefined) | > 100 µM |  | 86 µM | > 100 µM | > 100 µM | > 100 µM | > 100 µM | > 100 µM | 65.9 µM | 88.8 µM | > 100 µM | > 100 µM | > 100 µM | > 100 µM | 19.1 µM | 60.5 µM | 43.2 µM | > 100 µM | 71.9 µM |  |
| CCC(C)SC1SCC2C(=O)N(C)C3(CC3C)C(=O)OCC(NC(=O)c3nc4ccccc4cc3O)C(=O)NC(C)C(=O)N(C)C1C(=O)N(C)C1(CC1C)C(=O)OCC(NC(=O)c1nc3ccccc3cc1O)C(=O)NC(C)C(=O)N2C (centres undefined) | 0.000492 µM | 0.00538 µM | 0.0687 µM | 0.000154 µM | 0.00256 µM | 8.3e-05 µM | 0.000846 µM and < 0.025 µM | 0.0182 µM |  |  |  |  | 0.000309 µM |  |  |  | 0.000187 µM |  |  |  |
| O=C1C(C(Nc2ccccc2)c2ccccc2)=C([O-])c2ccccc21.O=C1C(C(Nc2ccccc2)c2ccccc2)=C([O-])c2ccccc21.[Cu+2] (centres undefined) | > 100 µM |  | > 100 µM | > 100 µM |  | 92.1 µM | > 100 µM |  | 30.6 µM |  |  |  |  | 18.5 µM | 25.5 µM | 24.9 µM |  |  | 17.2 µM |  |
| O=c1c2cccnc2ncn1CCN1CCCCC1 |  | > 100 µM | > 100 µM | > 100 µM | > 100 µM | > 100 µM | > 100 µM | > 100 µM |  |  |  |  |  |  |  |  |  |  |  |  |
| CN(C)CC1CCCC/C1=N/O (centres undefined) | > 100 µM | > 100 µM | > 100 µM | > 100 µM | > 100 µM | > 100 µM | > 100 µM | > 100 µM |  |  |  |  |  |  |  |  |  |  |  |  |
| CC(=O)[O-].CC(=O)[O-].O=C(N/N=C/c1cc(Cl)cc(Cl)c1O)c1ccncc1.[Cu+2] | > 100 µM | > 100 µM | > 100 µM | > 100 µM | > 100 µM | > 100 µM | > 100 µM |  |  |  |  |  |  |  |  |  |  |  |  |  |
| COc1ccc(/C=C/COC(C)=O)cc1OC |  | > 100 µM | > 100 µM | > 100 µM | > 100 µM | > 100 µM |  | > 100 µM |  |  |  |  |  |  |  |  |  |  |  |  |
| CN(C)C=Nc1nc(=O)n(C2CCC(CO)O2)cc1F (centres undefined) |  | > 100 µM | > 100 µM | > 100 µM | > 100 µM | > 100 µM | > 100 µM | > 100 µM |  |  |  |  |  |  |  |  |  |  |  |  |
| Cc1nc(-c2nc(C)c(C(=O)NNC(=O)C[n+]3ccccc3)s2)sc1C(=O)NNC(=O)C[n+]1ccccc1 | > 100 µM | > 100 µM | > 100 µM | > 100 µM | > 100 µM | 84.3 µM | > 100 µM |  |  |  |  |  |  |  |  |  |  |  |  |  |
| O=C(O)CSc1n[nH]c(-c2ccccc2O)n1 | > 100 µM | > 100 µM | > 100 µM | > 100 µM | > 100 µM | > 100 µM | > 100 µM | > 100 µM |  |  |  |  |  |  |  |  |  |  |  |  |
| CCCOc1nc(N)c2cnn(C3CCCCO3)c2n1 (centres undefined) |  | > 100 µM | > 100 µM | > 100 µM | > 100 µM | > 100 µM | > 100 µM | > 100 µM |  |  |  |  |  |  |  |  |  |  |  |  |
| CN(C)C(=S)/N=c1\ssc(=S)n1C1CCCCC1 | > 100 µM | > 100 µM | 52.3 µM | > 100 µM | > 100 µM | > 100 µM | 36.3 µM | > 100 µM |  |  |  |  |  |  |  |  |  |  |  |  |
| O=S1C(=c2ccc(=C3Sc4ccccc4S3)cc2)Sc2ccccc21 (centres undefined) | 30.2 µM | 34.2 µM | > 100 µM | 30.2 µM | 32.4 µM | 35.8 µM | 29 µM | > 100 µM |  |  |  |  |  |  |  |  |  |  |  |  |
| Cc1ccc(S(=O)(=O)N2CCC2c2ccccc2)cc1 (centres undefined) | > 100 µM | > 100 µM | > 100 µM | > 100 µM |  | > 100 µM | > 100 µM | > 100 µM |  |  |  |  |  |  |  |  |  |  |  |  |
| O=c1[nH]c(-c2ccccc2)nc2cc(Cl)ccc12 | > 100 µM | > 100 µM | > 100 µM | > 100 µM | > 100 µM | > 100 µM | > 100 µM | > 100 µM |  |  |  |  |  |  |  |  |  |  |  |  |
| COc1c(CC(C)=O)ccc2c1C(=O)c1ccc(C=O)c(OC(C)=O)c1C2=O | 80.3 µM | 56.9 µM | 47.6 µM |  | 30.3 µM | 77.8 µM | 25.6 µM | 30.4 µM |  |  |  |  |  |  |  |  |  |  |  |  |
| CN(C)CC1CCC/C1=N/OC(=O)c1ccccc1 (centres undefined) | > 100 µM |  | > 100 µM | > 100 µM | > 100 µM | > 100 µM | > 100 µM | > 100 µM |  |  |  |  |  |  |  |  |  |  |  |  |
| COc1ccc2c(c1)[n+]([O-])c(C(N)=O)c(N)[n+]2[O-] | > 100 µM | > 100 µM |  | 97.7 µM | > 100 µM | > 100 µM | > 100 µM | > 100 µM |  |  |  |  |  |  |  |  |  |  |  |  |
| O=C(NC1C=CCC2C(=O)N(c3ccccc3)C(=O)C12)OCc1ccccc1 (centres undefined) |  | > 100 µM | > 100 µM | > 100 µM | > 100 µM | > 100 µM | > 100 µM | > 100 µM |  |  |  |  |  |  |  |  |  |  |  |  |
